For 18 compounds, IC50 results are on record in patent US7541383B2, “Asthma and allergic inflammation modulators” (Amgen Inc., priority 2002, dated 2009).

This assay addresses T1, human CRTH2 (Homo sapiens, UniProt Q9Y5Y4).
T1 construct: Full-length human CRTH2 cDNA was generated by polymerase chain reaction (PCR); expressed in transfected cells; host or cells: 293 cells stably transfected with pHLT124 (pCDNA3.1(+)), named 293(124)
T1 sequence (Q9Y5Y4 1-395): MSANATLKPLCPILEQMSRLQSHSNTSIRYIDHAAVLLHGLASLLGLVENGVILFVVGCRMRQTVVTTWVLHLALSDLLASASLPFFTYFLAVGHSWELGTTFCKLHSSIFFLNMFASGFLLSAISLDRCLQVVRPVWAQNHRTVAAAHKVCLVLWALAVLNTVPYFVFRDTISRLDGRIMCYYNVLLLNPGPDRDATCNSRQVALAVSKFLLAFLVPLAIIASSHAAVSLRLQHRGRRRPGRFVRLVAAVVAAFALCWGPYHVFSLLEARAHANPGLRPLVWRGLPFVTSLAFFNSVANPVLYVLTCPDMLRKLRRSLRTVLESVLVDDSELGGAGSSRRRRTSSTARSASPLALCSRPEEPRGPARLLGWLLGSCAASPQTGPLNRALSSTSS
Kind of assay: Human CRTH2 binding assay (3H-PGD2 ligand binding, 293(124) cells). To be noted: 3H-PGD2 binding to 293(124) cells stably expressing human CRTH2; room temperature, 2.5 h. As to the method:
Full-length human CRTH2 cDNA was generated by polymerase chain reaction (PCR) using human genomic DNA as template and subsequently cloned into pCDNA3.1(+) (Invitrogen), generating a CRTH2 expression plasmid pHLT124. The plasmid was transfected into 293 cells, […], using LipofectAMINE™ reagents (Gibco/BRL). G418 ([…]) was added to the culture 48 h after transfection and cells were maintained under selection for 3 weeks to ensure that all surviving cells stably expressed CRTH2. These cells are labeled as 293(124) hereafter.
^3H-PGD2 binding assay was performed using 293(124) cells. In brief, cells were washed and suspended in RPMI containing 0.5% BSA and 20 mM HEPES. Each assay contained 25,000 cells, appropriate amount of test compound when necessary and a mixture of 1 nM ^3H-PGD2 (Anmersham Pharmacia Biotech) and 30 nM of unlabeled PGD2 (Cayman Chemicals) in […] final volume. The cell mixture was incubated at room temperature for 2.5 h with shaking and the cells were separated from free ^3H-PGD2 and transferred onto a filter plate using a cell harvester. Radioactivity bound to the cells was measured on a liquid scintillation counter. Nonspecific binding was determined in the presence of […] of unlabeled PGD2.

As for `Cc1ccc(S(=O)(=O)Nc2cc(C(F)(F)F)ccc2Oc2ccc(CC(=O)O)cc2)cc1` [Example 1, {4-[2-(toluene-4-sulfonylamino)-4-trifluoromethyl-phenoxy]-phenyl}-acetic acid], the IC50 is 1000 to 15000 nM.

Compound `O=C(O)Cc1cccc(Oc2ccc(C(=O)c3ccccc3)cc2NS(=O)(=O)c2ccccc2)c1` [Example 33, 3-(4-Benzoyl-2-benzenesulfonylamino-phenoxy)phenylacetic acid] registered an IC50 of 1000 to 15000 nM.

Regarding `O=C(O)Cc1ccc(Oc2ccc(C(F)(F)F)cc2NC(=O)c2ccccc2)cc1` [Example 3, [4-(2-Benzoylamino-4-trifluoromethyl-phenoxy)-phenyl]-acetic acid], the half-inhibitory concentration (IC50) was in the range of 1000 to 15000 nM.

Take `O=C(O)Cc1cccc(Oc2ccc(Cl)cc2NS(=O)(=O)c2ccccc2)c1` [Example 35, 3-(4-Chloro-2-benzenesulfonylamino-phenoxy)phenylacetic acid]: the IC50 is below 1000 nM.

The compound `COc1ccc(Oc2cccc(CC(=O)O)c2)c(NS(=O)(=O)c2ccccc2)c1` [Example 36, 3-(4-Methoxy-2-benzenesulfonylamino-phenoxy)phenylacetic acid] gave an IC50 of 1000 to 15000 nM.

Take `O=C(O)Cc1cc(OCc2ccccc2)cc(C(F)(F)F)c1` [Example 5, (3-benzyloxy-5-trifluoromethyl-phenyl)-acetic acid]: the IC50 fell in the range of 1000 to 15000 nM.

Regarding `CCNC(=O)c1ccc(Oc2ccc(CC(=O)O)cc2OC)c(NS(=O)(=O)c2ccc(Cl)cc2Cl)c1` [Example 12, (4-[2-(2,4-Dichloro-benzenesulfonyl-amino)-4-ethylcarbamoyl-phenoxy]-3-methoxy-phenyl)-acetic acid], the IC50 is below 1000 nM.

The compound `CCNC(=O)c1ccc(Oc2ccc(Cc3nnn[nH]3)cc2OC)c(NS(=O)(=O)c2ccc(Cl)cc2Cl)c1` [Example 75, 3-(2,4-Dichloro-benzenesulfonylamino)-N-ethyl-4-[2-methoxy-4-(1H-tetrazol-5-ylmethyl)-phenoxy]-benzamide] came in with an IC50 below 1000 nM.

Take `O=C(O)Cc1cn(Cc2ccccc2NCc2ccccc2)c2ccccc12` [Example 63]: the IC50 was 1000 to 15000 nM.

`CCNC(=O)c1ccc(Oc2cc(CC(=O)O)ccc2OC)c(NC(=O)OC(C)C)c1` [Example 77, [3-(4-Ethylcarbamoyl-2-isopropoxycarbonylamino-phenoxy)-4-methoxy-phenyl]-acetic acid] displayed an IC50 of 1000 to 15000 nM.

`CS(=O)(=O)Nc1cc(C(F)(F)F)ccc1Oc1ccc(CC(=O)O)cc1` [Example 4, [4-(2-Methanesulfonylamino-4-trifluoromethyl-phenoxy)-phenyl]-acetic acid] showed an IC50 above 15000 nM.

Consider `CCOC(=O)Cc1cccc(Oc2ccccc2[N+](=O)[O-])c1` [Example 31, Ethyl 3-(2-nitrophenoxy)phenylacetate], for which the IC50 was above 15000 nM.

For the compound `CCNC(=O)c1ccc(Oc2ccc(CCC(=O)O)cc2)c(NS(=O)(=O)c2ccccc2)c1` [Example 10, 3-[4-(2-Benzenesulfonylamino-4-ethylcarbamoyl-phenoxy)-phenyl]-propionic acid], the IC50 was below 1000 nM.

As for `Cc1ccc(S(=O)(=O)Nc2ccccc2Cc2ccc(CC(=O)O)cc2)cc1` [Example 64], the IC50 is below 1000 nM.

Turning to `CCNC(=O)c1ccc(S(=O)(=O)c2ccc(CC(=O)O)cc2)c(NS(=O)(=O)c2ccc(Cl)cc2Cl)c1` [Example 17, {4-[2-(2,4-dichloro-benzenesulfonyl-amino)-4-ethylcarbamoyl-benzenesulfonyl]-phenyl}-acetic acid], the IC50 was in the range of 1000 to 15000 nM.

`CCNC(=O)c1ccc(C(=O)c2cc(CC(=O)O)ccc2OC)c(NS(=O)(=O)c2ccc(C)cc2)c1` [Example 70]: the IC50 is below 1000 nM.

`CCNC(=O)c1cc(NS(=O)(=O)c2ccc(Cl)cc2Cl)c2oc3c(Cl)cc(CC(=O)O)cc3c2c1` [Example 18, [4-chloro-6-(2,4-dichloro-benzenesulfonyl-amino)-8-ethylcarbamoyl-dibenzofuran-2-yl]-acetic acid] had an IC50 below 1000 nM.

As to `O=C(O)Cc1ccc(Oc2ccc(C(F)(F)F)cc2NS(=O)(=O)c2cccc3ccccc23)cc1` [Example 2, {4-[2-(Naphthalene-1-sulfonylamino)-4-trifluoromethyl-phenoxy]-phenyl}-acetic acid], the IC50 was in the range of 1000 to 15000 nM.

In general, IC50 refers to the concentration at which inhibition is half-maximal. A higher IC50 goes with lower potency.
